In the assay the test system is Human mast cells (CHMC). Briefly: LD Tryptase release assay in CHMC (mast cell activation induced by FcγR cross-linking). Format: cell-based. Conditions: Homo sapiens, Mast cell, anti-IgG stimulation, activity of tryptase released upon degranulation. The essentials:
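Mast cells derived from CD38-negative progenitors were preincubated 1 h at 37 °C with compound in HEPES-buffered saline (pH 7.4, 0.1% BSA, compound diluted in buffer with 2% MeOH/1% DMSO). Cells were then stimulated 60 min with anti-human IgG (final 1 μg/mL). Released tryptase was measured on Z-Ala-Lys-Arg-AMC (30 min, room temperature, 355/460 nm) to give the IC50.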
In the case of `CC1(C)Oc2ccc(Nc3nc(Nc4ccc(N5CCC(F)(F)CC5)cc4)ncc3F)nc2NC1=O` [Compound 29, N4-(2,2-dimethyl-3,4-dihydro-3-oxo-2H-pyrido[3,2-b][1,4]oxazin-6-yl)-5-fluoro-N2-[4-(4,4-difluoro-1-piperidinyl)phenyl]-2,4-pyrimidinediamine], the IC50 (usually the concentration at which inhibition is half-maximal) was in the range of 1000 to 100000 nM. For `[2H]C1([2H])OC([2H])([2H])C([2H])([2H])N(c2ccc(Nc3ncc(F)c(Nc4ccc5c(n4)NC(=O)C(C)(C)O5)n3)cn2)C1([2H])[2H]` [Compound 107, N4-(2,2-dimethyl-3,4-dihydro-3-oxo-2H-pyrido[3,2-b][1,4]oxazin-6-yl)-5-fluoro-N2-[6-(2,2,3,3,5,5,6,6-d8-morpholino)pyridin-3-yl]-2,4-pyrimidinediamine], the IC50 is less than 100 nM. On to `CC1(C)CN(c2ccc(Nc3ncc(F)c(Nc4ccc5c(n4)NC(=O)C(C)(C)O5)n3)cc2)CCO1` [Compound 116, N4-(2,2-dimethyl-3,4-dihydro-3-oxo-2H-pyrido[3,2-b][1,4]oxazin-6-yl)-N2-[4-(2,2-dimethylmorpholino)phenyl]-5-fluoro-2,4-pyrimidinediamine], for which the IC50 is less than 100 nM. With `CCOC[C@H]1CN(c2ccc(Nc3ncc(F)c(Nc4ccc5c(n4)NC(=O)C(C)(C)O5)n3)cn2)CCO1` [Compound 103, N4-(2,2-dimethyl-3,4-dihydro-3-oxo-2H-pyrido[3,2-b][1,4]oxazin-6-yl)-N2-[6-(((2R)-2-ethoxymethyl)morpholino)pyridin-3-yl]-5-fluoro-2,4-pyrimidinediamine], the IC50 was in the range of 100 to 500 nM. As for `CC1(C)Oc2ccc(Nc3nc(Nc4ccc(N5CCO[C@H](CCO)C5)cc4)ncc3F)nc2NC1=O` (stereo in doubt) [Compound 126, N4-(2,2-dimethyl-3,4-dihydro-3-oxo-2H-pyrido[3,2-b][1,4]oxazin-6-yl)-5-fluoro-N2-[4-((2-hydroxyethyl)morpholino)phenyl]-2,4-pyrimidinediamine], the IC50 was in the range of 100 to 500 nM.

In the case of `C[C@@H]1COCCN1c1ccc(Nc2ncc(F)c(Nc3ccc4c(n3)NC(=O)C(C)(C)O4)n2)cc1` [Compound 81], the IC50 is 100 to 500 nM.

Values taken from patent US8618095B2 (Rigel Pharmaceuticals, Inc., priority 2010, dated 2013).
